Assay type in all cases: cell-based
For one test, the system named is E. cloacae ATCC BAA-2341. The test is described as follows: MIC of PMB and PME. The source says: (§1) TABLE 25 details the MICs of PMB and PME against E. cloacae and K. pneumoniae.
Test [1] deals with K. pneumoniae ATCC BAA-2341. Description: MIC of PMB and PME. To be noted: K. pneumoniae ATCC BAA-2341 (so in the source).
Text: as §1

The subject of test [2] is A. baumannii (ATCC 15151). Description: MIC against A. baumannii. As to the method: TABLE 28 details the individual MIC values of compounds 1, 7, 8, 9, 10, 11, PMB, PME, and light against A. baumannii.
The MICs of PME and compounds 8-11 were determined against A. baumannii (ATCC 15151). […] After incubating the cells with PME, a compound (5 μM) was added, and the samples were further incubated at 37° C. At specific time points, samples were taken and diluted ten-fold in media. Ten microliters of each dilution was then drip-streaked onto an agar plate and incubated overnight at 37° C. Colony counts were then performed, and the CFU/mL were calculated.

The test system of a further test is P. aeruginosa. The test is described as follows: MIC against P. aeruginosa. From the text: Only compound 1 was able to decrease the CFU/mL when used in conjunction with white light to treat P. aeruginosa.
Test [3] relates to Klebsiella pneumoniae (CRE, ATCC BAA-1705). The test is described as follows: MIC against CRE. As to the method: TABLE 27 details the individual MIC values of compounds 1, 7, 8, 9, 10, 11, PMB, PME, and light against CRE.
The MICs of PME and compounds 8-11 were determined against Klebsiella pneumoniae (CRE, ATCC BAA-1705). […] After the incubation with PME, the compounds were added at a concentration of 20 μM, and the samples were further incubated. At specific time points, the samples were taken and diluted ten-fold in media. Ten microliters of each dilution was then drip-streaked onto an agar plate and incubated overnight at 37° C. Colony counts were then performed and the CFU/mL were calculated.

The next test has as its system E. coli. The test is described as follows: MIC against E. coli. From the text: TABLE 18 details the obtained MIC values for cells treated with compound 1, light, PMB, and Polymyxin E (PME) against E. coli.
The subject of test [4] is Klebsiella pneumoniae (CRE, ATCC BAA-1705). Description: Cell killing of CRE with compounds in presence or absence of PMB (CFU/mL). As to conditions: PMB alone. On the procedure: Klebsiella pneumoniae (CRE, ATCC BAA-1705) was grown in TSB overnight at 37° C. and diluted to about 5×10^5 CFU/mL using a McFarland Latex Turbidity standard (0.5). One mL of the cell suspension was transferred to a glass culture test tube. PMB was added to the cell suspension resulting in a final concentration of 200 μg/mL of PMB. The cell suspension was incubated at 37° C. on a rotary shaking incubator at 150 rpm for 4 hours. Compounds 1, 7, 8, 9, 10, and 11 were added to the cell suspension, resulting in a concentration of 20 μM for each of the compounds. The cell suspensions containing the compounds were incubated at 37° C. on a rotary shaking incubator at 150 rpm for 4 hours. Each sample was diluted tenfold to a 10^−5 dilution. Ten 10 microliters of each dilution from each sample was dripped onto a TSA plate and allowed to streak down the plate. The agar plates were incubated at 37° C. for 18-24 hours. Colony counts were performed and CFU/mL values were calculated.
The MICs of PMB and compounds 7-11 were determined against Klebsiella pneumoniae (CRE, ATCC BAA-1705). […] After the incubation with PMB, each of the compounds was added at a concentration of 20 μM, and the samples were incubated for an additional 18 hours. A sample was taken and diluted ten-fold in media. Ten microliters of each dilution was then drip-streaked onto an agar plate and incubated overnight at 37° C. Colony counts were then performed and the concentrations of cells (CFU/mL) were calculated.

2 substances from patent publication US9834514B2, “Antibiotic sensitivity-restoring and photosensitive agents” (New Mexico Tech Research Foundation, priority 2015, dated 2017) can be followed below.

For Polymyxin E [PME, reference compound], the MIC in the test on E. cloacae ATCC BAA-2341 turned out to be 16 µg/mL; in test [1], 16 µg/mL; with P. aeruginosa, 2 µg/mL. For the same substance, the “A. baumannii MIC” value in test [2] is 0.5 µg/mL. Moreover, in test [3], the “CRE MIC” value is 4 µg/mL. In the test with E. coli, the “E. Coli MIC” value is 2 µg/mL.

With polymyxin B [PMB, reference compound], the MIC in the test with E. cloacae ATCC BAA-2341 amounted to 4 µg/mL. In addition, the “PMB @ 0.2 μg/mL” value in test [4] is 1.8 × 10^6 CFU/mL. Moreover, the “A. baumannii MIC” value in test [2] amounted to 4 µg/mL. The “CRE MIC” value in test [3] was determined as 4 µg/mL. Also, the “E. Coli MIC” value in the test with E. coli is 2 µg/mL.
